Laboratory results published in paper PMC5187916, “Discovery of a New Class of Cathepsin K Inhibitors in Rhizoma Drynariae as Potential Candidates for the Treatment of Osteoporosis” (International Journal of Molecular Sciences, 2016).

Key:
[1] = target: T1, Cathepsin K (Homo sapiens, UniProt P43235); experiment: fluorescence enzyme assay with recombinant human Ctsk, LR-AFC substrate; format: biochemical
T1 construct: gene CTSK
T1 sequence (P43235 115-329): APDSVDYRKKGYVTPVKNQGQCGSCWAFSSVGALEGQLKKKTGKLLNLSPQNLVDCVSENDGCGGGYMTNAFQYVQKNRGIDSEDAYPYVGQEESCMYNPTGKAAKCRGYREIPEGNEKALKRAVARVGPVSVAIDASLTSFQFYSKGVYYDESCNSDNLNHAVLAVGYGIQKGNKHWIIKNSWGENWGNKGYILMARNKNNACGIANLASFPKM

[2] = target: T1, Cathepsin K; experiment: fluorescence enzyme assay with recombinant human Ctsk, LR-AFC substrate (kit positive control); format: biochemical

## C=C(C)C(CC=C(C)C)Cc1c(O)cc2c(c1O)C(=O)CC(c1ccc(O)cc1O)O2 (stereo not drawn) [KF, Kushennol F]
[1]
  IC50: 8.79 µM

## C=C(C)[C@H](CC=C(C)C)Cc1c(O)cc(O)c2c1O[C@H](c1ccc(O)cc1O)CC2=O [SG, Sophoraflavanone G]
[1]
  IC50: 27.2 µM

## FF-FMK
[2]
  IC50: 47 nM
